One experiment deals with T1, TBK1 (Homo sapiens, UniProt Q9UHD2).
T1 sequence (Q9UHD2 1-729): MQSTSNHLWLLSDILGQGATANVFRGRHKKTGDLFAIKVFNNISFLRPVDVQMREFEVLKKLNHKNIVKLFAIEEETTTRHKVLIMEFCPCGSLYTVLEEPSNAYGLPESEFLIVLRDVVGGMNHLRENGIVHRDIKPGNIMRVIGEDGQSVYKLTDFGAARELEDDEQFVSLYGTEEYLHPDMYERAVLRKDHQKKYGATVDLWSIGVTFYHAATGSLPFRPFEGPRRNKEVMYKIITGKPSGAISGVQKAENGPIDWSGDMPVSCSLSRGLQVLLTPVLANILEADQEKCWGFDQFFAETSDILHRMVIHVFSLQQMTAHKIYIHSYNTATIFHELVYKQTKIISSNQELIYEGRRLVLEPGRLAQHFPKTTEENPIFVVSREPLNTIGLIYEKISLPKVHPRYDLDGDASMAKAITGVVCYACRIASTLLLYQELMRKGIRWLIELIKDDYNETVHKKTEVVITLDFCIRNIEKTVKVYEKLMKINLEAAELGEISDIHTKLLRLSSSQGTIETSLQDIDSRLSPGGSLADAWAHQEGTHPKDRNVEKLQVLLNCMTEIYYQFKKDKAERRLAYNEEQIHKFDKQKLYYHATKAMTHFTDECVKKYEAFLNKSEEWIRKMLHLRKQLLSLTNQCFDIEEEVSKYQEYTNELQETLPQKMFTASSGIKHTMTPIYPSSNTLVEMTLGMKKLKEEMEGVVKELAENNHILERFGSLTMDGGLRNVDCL
In words: TBK biochemical assay. To be noted: 10 point 1:4 dose response, 30 uM top concentration, 90 min at 25° C., LabChip EZ Reader II; read-out: TBK1_IC50. A digest of the protocol:
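Read-out was a Caliper LabChip mobility-shift assay, run after a 90-min, 25 °C reaction of TBK1 with substrate and compounds, quenched with stop buffer. Control wells received staurosporine at 10 uM final.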

A further experiment deals with T2, IKKε (Homo sapiens, UniProt Q14164).
T2 sequence (Q14164 1-716): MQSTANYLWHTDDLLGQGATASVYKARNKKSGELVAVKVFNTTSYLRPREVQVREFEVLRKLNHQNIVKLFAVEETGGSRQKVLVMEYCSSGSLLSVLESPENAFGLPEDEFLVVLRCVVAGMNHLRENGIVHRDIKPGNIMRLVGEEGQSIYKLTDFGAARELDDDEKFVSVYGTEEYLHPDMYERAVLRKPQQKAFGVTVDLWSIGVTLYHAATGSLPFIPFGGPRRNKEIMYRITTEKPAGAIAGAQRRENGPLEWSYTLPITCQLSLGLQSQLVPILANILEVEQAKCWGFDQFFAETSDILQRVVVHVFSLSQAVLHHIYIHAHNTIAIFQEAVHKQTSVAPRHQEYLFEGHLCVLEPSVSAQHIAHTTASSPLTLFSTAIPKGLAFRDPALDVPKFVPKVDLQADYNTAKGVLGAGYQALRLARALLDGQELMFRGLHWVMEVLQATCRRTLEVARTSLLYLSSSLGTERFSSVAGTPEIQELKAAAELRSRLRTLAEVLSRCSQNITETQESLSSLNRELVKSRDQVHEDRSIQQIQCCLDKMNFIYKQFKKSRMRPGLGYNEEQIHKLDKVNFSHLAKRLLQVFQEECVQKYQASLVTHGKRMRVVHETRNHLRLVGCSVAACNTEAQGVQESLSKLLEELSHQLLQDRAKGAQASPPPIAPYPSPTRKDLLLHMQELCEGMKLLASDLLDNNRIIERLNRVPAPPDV
Nature of the experiment: IKKε biochemical assay. Conditions: 10 point 1:4 dose response, 30 uM top concentration, 90 min at 25° C., LabChip EZ Reader II; read-out: IKKε_IC50. A digest of the protocol:
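Mobility-shift LabChip read-out followed a 90 min, 25° C. reaction of IKKε with substrate and test compound, with DMSO held at 1% final. Reactions were ended with stop buffer. Wells with 10 uM final staurosporine defined complete inhibition, and DMSO-only wells the uninhibited level.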

Results on 18 molecules are retold here after patent US20230019491A1, “PYRIMIDINE TBK/IKKe INHIBITOR COMPOUNDS AND USES THEREOF” (Merck Patent GmbH, priority 2017, published 2023).

Regarding `COc1nc(Nc2nccc(-c3ccc(OC4CCN(C(=O)[C@H](C)O)CC4(F)F)c(C#N)c3)n2)ccc1N1CCOCC1` (stereo partly drawn) [Example 275, 2-([3,3-difluoro-1-[(2S)-2-hydroxypropanoyl]piperidin-4-yl]oxy)-5-(2-[[6-methoxy-5-(morpholin-4-yl)pyridin-2-yl]amino]pyrimidin-4-yl)benzonitrile], the IC50 at TBK1 and at IKKε was under 100 nM each time.

For the molecule `COc1nc(Nc2nccc(-c3ccc(OC4CCN(C(=O)[C@@H](C)O)CC4(F)F)c(C#N)c3)n2)ccc1N1CCN(C)[C@@H](C)C1` (stereo partly drawn) [Example 102, 2-[3,3-Difluoro-1-((R)-2-hydroxy-propionyl)-piperidin-4-yloxy]-5-{2-[5-((S)-3,4-dimethyl-piperazin-1-yl)-6-methoxy-pyridin-2-ylamino]-pyrimidin-4-yl}-benzonitrile], the IC50 at TBK1 and on IKKε was under 100 nM in each case.

Consider `CN1CCN(c2ccc(Nc3nccc(-c4ccc(OC5CCN(C)CC5(F)F)c(C#N)c4)n3)nc2)CC1` (stereo not drawn) [Example 85, 2-[(3,3-difluoro-1-methylpiperidin-4-yl)oxy]-5-(2-[[5-(4-methylpiperazin-1-yl)pyridin-2-yl]amino]pyrimidin-4-yl)benzonitrile], for which the IC50 at TBK1 and at IKKε was 100 to 1000 nM throughout.

With `COc1cc(Nc2nccc(-c3ccc(OC4CCN(C(=O)[C@H](C)O)CC4(F)F)c(C#N)c3)n2)cnc1N1CCN(C2COC2)CC1` (stereo partly drawn) [Example 323, 2-([3,3-difluoro-1-[(2S)-2-hydroxypropanoyl]piperidin-4-yl]oxy)-5-[2-([5-methoxy-6-[4-(oxetan-3-yl)piperazin-1-yl]pyridin-3-yl]amino)pyrimidin-4-yl]benzonitrile], the IC50 at TBK1 and on IKKε was under 100 nM each time.

`C[C@H](O)C(=O)N1CCC(Oc2ccc(-c3ccnc(Nc4ccc(N5CCN(C6COC6)CC5)cc4)n3)cc2C#N)C(F)(F)C1` (stereo partly drawn) [Example 138, 2-([3,3-difluoro-1-[(2S)-2-hydroxypropanoyl]piperidin-4-yl]oxy)-5-[2-([4-[4-(oxetan-3-yl)piperazin-1-yl]phenyl]amino)pyrimidin-4-yl]benzonitrile]: the IC50 at TBK1 and at IKKε was under 100 nM each time.

Turning to `COc1nc(Nc2nccc(-c3ccc(O[C@H]4CCN(C(=O)c5cnn[nH]5)C[C@H]4F)c(C#N)c3)n2)ccc1N1CCN(C2COC2)CC1` [Example 115, 2-[[(3R,4S)-3-fluoro-1-[(1H-1,2,3-triazol-5-yl)carbonyl]piperidin-4-yl]oxy]-5-[2-([6-methoxy-5-[4-(oxetan-3-yl)piperazin-1-yl]pyridin-2-yl]amino)pyrimidin-4-yl]benzonitrile], the IC50 at TBK1 and at IKKε was under 100 nM each time.

On to `CN1CCN(c2ccc(Nc3nccc(-c4ccc(OC5CCOCC5)c(C#N)c4)n3)cc2)CC1` [Example 163, 5-{2-[4-(4-Methyl-piperazin-1-yl)-phenylamino]-pyrimidin-4-yl}-2-(tetrahydro-pyran-4-yloxy)-benzonitrile], for which the IC50 on TBK1 and on IKKε was under 100 nM each time.

Take `COc1nc(Nc2nccc(-c3ccc(N4CCC5(CC4)CNC5)c(C#N)c3)n2)ccc1N1CCN(C2COC2)CC1` [Example 313, 2-(2,7-Diaza-spiro[3.5]non-7-yl)-5-{2-[6-methoxy-5-(4-oxetan-3-yl-piperazin-1-yl)-pyridin-2-ylamino]-pyrimidin-4-yl}-benzonitrile]: the IC50 at TBK1 was under 100 nM; at IKKε it was 100 to 1000 nM.

For `C[C@H](O)C(=O)N1CC(Oc2ccc(-c3ccnc(Nc4ccc(N5CCN(C6COC6)CC5)cc4)n3)cc2C#N)C1` [Example 172, 2-([1-[(2S)-2-hydroxypropanoyl]azetidin-3-yl]oxy)-5-[2-([4-[4-(oxetan-3-yl)piperazin-1-yl]phenyl]amino)pyrimidin-4-yl]benzonitrile], the IC50 on TBK1 and on IKKε was 100 to 1000 nM in each case.

On to `COc1nc(Nc2nccc(-c3ccc(OC4CCN(C(=O)[C@H](C)O)CC4(F)F)c(C#N)c3)n2)ccc1N1CCN(C)[C@H](C)C1` (stereo partly drawn) [Example 106, 2-[3,3-Difluoro-1-((S)-2-hydroxy-propionyl)-piperidin-4-yloxy]-5-{2-[5-((R)-3,4-dimethyl-piperazin-1-yl)-6-methoxy-pyridin-2-ylamino]-pyrimidin-4-yl}-benzonitrile], for which the IC50 at TBK1 and on IKKε was under 100 nM in each case.

As for `COc1nc(Nc2nccc(-c3ccc(OC4CCOCC4)c(C#N)c3)n2)ccc1C(=O)NC1CN2CCC1CC2` (stereo not drawn) [Example 21, 6-((4-(3-cyano-4-((tetrahydro-2H-pyran-4-yl)oxy)phenyl)pyrimidin-2-yl)amino)-2-methoxy-N-(quinuclidin-3-yl)nicotinamide], the IC50 on TBK1 and at IKKε was under 100 nM in each case.

With `COc1nc(Nc2nccc(-c3ccc(OC4CCOCC4)c(C#N)c3)n2)ccc1N1CCN(C)CC1` [Example 33, 5-(2-(6-methoxy-5-(4-methylpiperazin-1-yl)pyridin-2-ylamino)pyrimidin-4-yl)-2-(tetrahydro-2H-pyran-4-yloxy)benzonitrile], the IC50 on TBK1 and at IKKε was under 100 nM throughout.

As to `COc1nc(Nc2nccc(-c3ccc(OC4CCOCC4)c(C#N)n3)n2)ccc1C1CCN(C)CC1` [Example 46, 6-(2-[[6-methoxy-5-(1-methylpiperidin-4-yl)pyridin-2-yl]amino]pyrimidin-4-yl)-3-(oxan-4-yloxy)pyridine-2-carbonitrile], the IC50 on TBK1 and at IKKε was under 100 nM each time.

Turning to `COc1nc(Nc2nccc(-c3ccc(OC4CCN(C(=O)C(C)C#N)CC4(F)F)c(C#N)c3)n2)ccc1N1CCN(C2COC2)CC1` (stereo not drawn) [Example 251, 2-[1-(2-Cyano-2-methyl-acetyl)-33-difluoro-piperidin-4-yloxy]-5-{2-[6-methoxy-5-(4-oxetan-3-yl-piperazin-1-yl)-pyridin-2-ylamino]-pyrimidin-4-yl}-benzonitrile], the IC50 on TBK1 and on IKKε was under 100 nM in each case.

On to `COc1cc(Nc2nccc(-c3cc(C#N)c(OC4CCOCC4)cn3)n2)cnc1N1CCN(C)CC1` [Example 56, 2-(2-[[5-methoxy-6-(4-methylpiperazin-1-yl)pyridin-3-yl]amino]pyrimidin-4-yl)-5-(oxan-4-yloxy)pyridine-4-carbonitrile], for which the IC50 on TBK1 and on IKKε was 100 to 1000 nM in each case.

On to `COc1nc(Nc2nccc(-c3ccc(OC4CCNCC4C)c(C#N)c3)n2)ccc1N1CCN(C2COC2)CC1` (stereo not drawn) [Example 270, 5-{2-[6-Methoxy-5-(4-oxetan-3-yl-piperazin-1-yl)-pyridin-2-ylamino]-pyrimidin-4-yl}-2-(3-methyl-piperidin-4-yloxy)-benzonitrile], for which the IC50 at TBK1 and at IKKε was under 100 nM in each case.

Turning to `COc1cccc(Nc2nccc(-c3ccc(O[C@@H]4CCN(C(=O)[C@H](C)O)CC4(F)F)c(C#N)c3)n2)n1` [Example 241, 2-[[(4R)-3,3-difluoro-1-[(2S)-2-hydroxypropanoyl]piperidin-4-yl]oxy]-5-[2-[(6-methoxypyridin-2-yl)amino]pyrimidin-4-yl]benzonitrile], the IC50 on TBK1 and at IKKε was under 100 nM in each case.

Take `N#Cc1cc(-c2ccnc(Nc3ccccn3)n2)ccc1OC1CCN(C(=O)[C@@H](O)CO)CC1(F)F` (stereo partly drawn) [Example 243, 2-[1-((S)-2,3-Dihydroxy-propionyl)-3,3-difluoro-piperidin-4-yloxy]-5-[2-(pyridin-2-ylamino)-pyrimidin-4-yl]-benzonitrile]: the IC50 on TBK1 and at IKKε was under 100 nM each time.
